Data published in US9084766B2, “Compounds and compositions for targeting cancer stem cells” (Boston Biomedical, Inc., priority 2010, dated 2015).
Entries after “also recorded” stand apart in the source; their conditions may differ.

Assays:
[1] = system: FaDu human head and neck cancer; assay: Antitumor activity in subcutaneous FaDu xenograft mice; type: in vivo
Experimental: In the studies shown in FIG. 8, immunosuppressed mice with established subcutaneous FaDu human head and neck cancer were given indicated amount of hand grounded Compound 1 with Crystal Form 1, or vehicle control orally (po). Compound 1 was formulated in […]™. All regimens were administered daily (qd). Tumor sizes were evaluated periodically during treatment.
In the study shown in FIG. 9, immunosuppressed mice with established subcutaneous FaDu human head and neck cancer were given 100 mg/kg of micronized Compound 1 produced with the synthetic process described in FIGS. 5A and 5B (first crop), or vehicle control orally (po). Compound 1 was formulated in […]™. All regimens were administered daily (qd). Tumor sizes were evaluated periodically during treatment. Form 2 has been successfully manufactured by a current good manufacturing practice (cGMP) process and received approval from the FDA and Health Canada to be used in clinical trials.
Form 3 can only be generated from Form 1 using a specially designed slurry process described herein. […] In the study shown in FIG. 10, immunosuppressed mice with established subcutaneous FaDu human head and neck cancer were given 200 mg/kg of Compound 1 with hand grounded Crystal Form 1 or Form 3, or vehicle control orally (po). Compound 1 was formulated in gelucire. All regimens were administered daily (qd). Tumor sizes were evaluated periodically during treatment. This polymorph has been successfully manufactured by a cGMP process and received approval from FDA and Health Canada to be used in clinical trials.
The anti-tumor activity of particles of Compound 1 with different particle size ranges is illustrated in FIG. 15, and the pharmacokinetic data for particles of Compound 1 with different particle size ranges is illustrated in FIGS. 16-18. In the study shown in FIG. 15, immunosuppressed mice with established subcutaneous FaDu human head and neck cancer were given indicated amount of Compound 1 with indicated particle size, or vehicle control orally (po). All regimens were administered daily (qd). Tumor size was evaluated periodically.
In an experiment, a formulation of Compound 1 particles sieved to 160 micron was tested in the model of immunosuppressed mice with established subcutaneous xenograft FaDu human head and neck cancer. The pharmaceutical composition was formulated as 80 mg/ml in 9% Gelucire, 20% Vitamin E TPGS (Table 3). […] All regimens were administered daily (qd).
In an experiment, Compound 1 crystals were milled to a median particle size of about 20 micron. […] All regimens were administered daily (qd).
FaDu human head and neck cancer cells were inoculated subcutaneously into female athymic nude mice (6×10^6 cells/mouse) and allowed to form palpable tumors. When the tumors reached approximately 100 mm^3, the animals were treated orally (po) with Compound 1 at 100 mg/kg or vehicle control daily. Compound 1 was formulated at 10 mg/ml in 20% gelucire. Tumors and bodyweights were measured throughout treatment (FIG. 15).
Daily examinations into the health status of each animal were also conducted. Body weights were checked every three days. Food and water was supplied daily according to the animal husbandry procedures of the facility. Treatment producing>20% lethality and or >20% net body weight loss were considered toxic. Results are expressed as mean tumor volume (mm^3)±SE. P Values<0.05 are considered to be statistically relevant.
Male or female athymic nude mice 4-5 weeks (Charles River Laboratories, Wilmington, Mass.), were acclimated to the animal housing facility for at least 1 week before study initiation. […]

advanced solid tumors = assay: Phase I clinical trial: tumor response (RECIST 1.1) and progression free survival; type: in vivo, human; details: clinical trials
Text: As of Feb. 7, 2011, 42 cancer patients with various advanced solid tumors who have failed chemotherapies were enrolled in the study.
Of the 42 patients dosed, 24 were evaluable for tumor response as of Feb. 7, 2011; 16 (16/24 evaluable patients) achieved stable disease (8 to 75+ weeks).

[2] = Phase I clinical trial: plasma pharmacokinetics; type: in vivo, human; details: clinical trials (FIG. 11, FIG. 12)
Experimental: A favorable PK profile with oral bid dosing was also observed. The plasma concentration reached several folds over efficacious concentration (in vitro IC50).
In yet another suitable dosing regimen, Compound 1 is administered with food which delays the Tmax (Table 13).

Structure (SMILES): CC(=O)c1cc2c(o1)C(=O)c1ccccc1C2=O [Crystal Form 1, 2-acetyl-4H,9H-naphtho[2,3-b]furan-4,9-dione]
- anti-tumor activity ([1]; hand grounded Crystal Form 1 in GELUCIRE, po qd (FIG. 8)): limited anti-tumor activity; also recorded: low anti-tumor activity

Structure (SMILES): CC(=O)c1cc2c(o1)C(=O)c1ccccc1C2=O [Crystal Form 2, 2-acetyl-4H,9H-naphtho[2,3-b]furan-4,9-dione]
- anti-tumor activity ([1]; 100 mg/kg micronized (first crop) in GELUCIRE, po qd (FIG. 9)): potent anti-tumor activity
- anti-tumor activity in cancer patients (advanced solid tumors): strong signs of anti-tumor activity
- pharmacokinetics in cancer patients [2]: desirable pharmacokinetics

Structure (SMILES): CC(=O)c1cc2c(o1)C(=O)c1ccccc1C2=O [Crystal Form 3, 2-acetyl-4H,9H-naphtho[2,3-b]furan-4,9-dione]
- antitumor activities ([1]; 200 mg/kg hand grounded, in gelucire, po qd (FIG. 10)): potent antitumor activities
